Experimental data from US20190315814A1, “LANTIBIOTIC VARIANTS AND USES THEREOF” (priority 2016, published 2019).
≈ marks a conversion by molar mass, not a printed value. Like-named read-outs stand apart in the source and are kept apart here.

What was measured:
[1] = system: VRE Enterococcus faecalis; conditions: VRE
[2] = simulated gi fluid
[3] = system: Peptostreptococcus anaerobius (ATCC 27337)
[4] = system: Clostridium difficile UNT103-1; test: Non-cannulated Syrian hamster C. difficile infection model, oral gavage; type: in vivo, Golden Syrian hamsters; conditions: for Percent Survival at Day-22: oral gavage TID Days 2-6, vancomycin 20 mg/kg once a day; for Toxin A level at Day-22 / Mean LOG10 CFU/mL of feces homogenates (cecal spore counts) at Day-22 / Toxin B level at Day-22: oral gavage; for Toxin A level at Day-22: first value of A/B cell; for Toxin A level at Day-22 / Toxin B level at Day-22: limit of detection 0.8; for Mean LOG10 CFU/mL of feces homogenates (cecal spore counts) at Day-22: limit of detection 2.40; for Toxin B level at Day-22: second value of A/B cell
Experimental: Following the recovery phase, male Golden Syrian hamsters were inoculated with Clostridium difficile UNT103-1 (VA11, non epidemic (cdtB-, REA group J) Curtis Donskey, Cleveland VA Hospital, Cleveland, Ohio). On Day 1, at 24 hrs after infection, all animals received a single subcutaneous injection of clindamycin (10 mg/kg). Test article formulations were administered three times per day (TID), starting on Day 2 at 18 hours after Clindamycin injection, for 5 consecutive days (Days 2 through 6), and followed until Day 22 to assess recurrence. Vancomycin (positive control) was administered once a day at 20 mg/kg on Days 2 through 6. Cecal spore counts and Toxins A and B were determined as described above

[5] = system: Lactobacillus acidophilus (CCUG 4356)
in vitro = conditions: simulated gi fluid
Experimental: Assay incubation conditions included […] simulated gastric fluid (SGF, USP 39 Test Solution; 2 g/L NaCl, 7 mL/L glacial HCl, pH 1.4) containing 1.75 mg/mL Pepsin (3200-4500 U/mg) mixed with 7.5 μL of 10 mg/mL variant (or positive control, NH2-Met-Arg-Phe-Ala-OH, MRFA, CAS#67368-29-0) for a final concentration of 300 μg/ml variant in a microfuge tube. Samples were incubated at 37° C. and analyzed using HPLC or LC-MS for loss of substrate. The percent remaining, elimination rate constant (Ke), and in vitro protein half-lives were calculated. A control of SGF without enzyme was also run and analyzed in the same manner for each variant.

[6] = system: Clostridium scindens (ATCC 35704)
[7] = system: Eggerthella lenta (ATCC 27337)
[8] = FaSSIF + 1% pancreatin + 3 μg/ml trypsin + 3 μg/ml chymotrypsin half-life

| SMILES | MIC VRE ATCC 51575 [1] [µg/mL] | MIC VRE CCUG 47775 [1] [µg/mL] | MIC VRE ATCC 700221 (VRE Enterococcus faecium) [µg/mL] | MIC to H. Pylori without EDTA (Heliobacter pylori) [µg/mL] | MIC to H. Pylori with 0.05M EDTA (Heliobacter pylori) [µg/mL] | half-life [2, 8] [h] | half-life ([2]; FaSSIF only half-life) [h] | MIC P. anaerobius [3] [µg/mL] | Percent Survival at Day-22 [4] [%] | Toxin A level at Day-22 [4] [ng/mL] | Mean LOG10 CFU/mL of feces homogenates (cecal spore counts) at Day-22 [4] [LOG10 CFU/mL] | Toxin B level at Day-22 [4] [ng/mL] | MIC L. acidophilus [5] [µg/mL] | half-life (in vitro) [h] | MIC C. scindens [6] [µg/mL] | MIC E. lenta [7] [µg/mL] |
| --- | --- | --- | --- | --- | --- | --- | --- | --- | --- | --- | --- | --- | --- | --- | --- | --- |
| C=C1NC(=O)[C@H](Cc2c[nH]c3ccccc23)NC(=O)[C@H](NC(=O)[C@H](CCCCN)NC(=O)[C@@H](N)CC(C)C)CSC[C@@H](C(=O)N[C@H]2C(=O)N3CCC[C@H]3C(=O)NCC(=O)N[C@H](C(=O)N[C@@H](C)C(=O)N[C@@H](C)C(=O)NC(=CC)C(=O)NCC(=O)N[C@@H]3CSC[C@@H]4NC(=O)[C@H](Cc5ccc(O)cc5)NC(=O)[C@@H](CS/C=C\NC4=O)NC(=O)[C@H](CC(N)=O)NC(=O)[C@H](Cc4ccccc4)NC3=O)CS[C@H]2C)NC(=O)[C@H](CC(C)C)NC1=O [F1L R13A] | 32 (≈ 14.9 µM) | 16 (≈ 7.46 µM) | 16 (≈ 7.46 µM) | 8 (≈ 3.73 µM) | 8 | > 12 | > 12 | 0.5 (≈ 0.233 µM) | 0 | 4532.5 | 7.28 | 1795.5 | 0.5 (≈ 0.233 µM) | > 24 | 4 (≈ 1.86 µM) | 0.5 (≈ 0.233 µM) |
| C=C1NC(=O)[C@H](Cc2c[nH]c3ccccc23)NC(=O)[C@H](NC(=O)[C@H](CCCCN)NC(=O)[C@@H](N)[C@@H](C)CC)CSC[C@@H](C(=O)N[C@H]2C(=O)N3CCC[C@H]3C(=O)NCC(=O)N[C@H](C(=O)N[C@@H](C)C(=O)N[C@@H](CC(N)=O)C(=O)NC(=CC)C(=O)NCC(=O)N[C@@H]3CSC[C@@H]4NC(=O)[C@H](Cc5ccc(O)cc5)NC(=O)[C@@H](CS/C=C\NC4=O)NC(=O)[C@H](CC(N)=O)NC(=O)[C@H](Cc4ccccc4)NC3=O)CS[C@H]2C)NC(=O)[C@H](CC(C)C)NC1=O [F1I R13N] | 16 (≈ 7.31 µM) | 16 (≈ 7.31 µM) | 32 (≈ 14.6 µM) | 8 (≈ 3.66 µM) | 8 | > 12 | > 12 | 0.25 (≈ 0.114 µM) | 66 | 138.1 | 3.64 | 120.2 | 0.5 (≈ 0.228 µM) | > 24 | 2 (≈ 0.914 µM) | 0.5 (≈ 0.228 µM) |
| C=C1NC(=O)[C@H](Cc2c[nH]c3ccccc23)NC(=O)[C@H](NC(=O)[C@H](CCCCN)NC(=O)[C@@H](N)[C@@H](C)CC)CSC[C@@H](C(=O)N[C@H]2C(=O)N3CCC[C@H]3C(=O)NCC(=O)N[C@H](C(=O)N[C@@H](C)C(=O)N[C@@H](CC(=O)O)C(=O)NC(=CC)C(=O)NCC(=O)N[C@@H]3CSC[C@@H]4NC(=O)[C@H](Cc5ccc(O)cc5)NC(=O)[C@@H](CS/C=C\NC4=O)NC(=O)[C@H](CC(N)=O)NC(=O)[C@H](Cc4ccccc4)NC3=O)CS[C@H]2C)NC(=O)[C@H](CC(C)C)NC1=O [F1I R13D] | 32 (≈ 14.6 µM) | 32 (≈ 14.6 µM) | 32 (≈ 14.6 µM) | 8 (≈ 3.65 µM) | 8 | > 12 | > 12 | 1 (≈ 0.457 µM) | 50 | 648.5 | 4.8 | 216.6 | 2 (≈ 0.913 µM) | > 24 | 8 (≈ 3.65 µM) | 2 (≈ 0.913 µM) |
| C=C1NC(=O)[C@H](Cc2c[nH]c3ccccc23)NC(=O)[C@H](NC(=O)[C@H](CCCCN)NC(=O)[C@@H](N)CC(C)C)CSC[C@@H](C(=O)N[C@H]2C(=O)N3CCC[C@H]3C(=O)NCC(=O)N[C@H](C(=O)N[C@@H](C)C(=O)N[C@@H](CC(=O)O)C(=O)NC(=CC)C(=O)NCC(=O)N[C@@H]3CSC[C@@H]4NC(=O)[C@H](Cc5ccc(O)cc5)NC(=O)[C@@H](CS/C=C\NC4=O)NC(=O)[C@H](CC(N)=O)NC(=O)[C@H](Cc4ccccc4)NC3=O)CS[C@H]2C)NC(=O)[C@H](CC(C)C)NC1=O [F1L R13D] | 64 (≈ 29.2 µM) | 32 (≈ 14.6 µM) | 32 (≈ 14.6 µM) | 8 (≈ 3.65 µM) | 4 | > 12 | > 12 | 2 (≈ 0.913 µM) |  |  |  |  | 8 (≈ 3.65 µM) | > 24 | 8 (≈ 3.65 µM) | 1 (≈ 0.457 µM) |
| C=C1NC(=O)[C@H](Cc2c[nH]c3ccccc23)NC(=O)[C@H](NC(=O)[C@H](CCCCN)NC(=O)[C@@H](N)[C@@H](C)CC)CSC[C@@H](C(=O)N[C@H]2C(=O)N3CCC[C@H]3C(=O)NCC(=O)N[C@H](C(=O)N[C@@H](C)C(=O)N[C@@H](C)C(=O)NC(=CC)C(=O)NCC(=O)N[C@@H]3CSC[C@@H]4NC(=O)[C@H](Cc5ccc(O)cc5)NC(=O)[C@@H](CS/C=C\NC4=O)NC(=O)[C@H](CC(N)=O)NC(=O)[C@H](Cc4ccccc4)NC3=O)CS[C@H]2C)NC(=O)[C@H](CC(C)C)NC1=O [F1I R13A] | 16 (≈ 7.46 µM) | 16 (≈ 7.46 µM) | 8 (≈ 3.73 µM) | 8 (≈ 3.73 µM) | 8 | > 12 | > 12 | 1 (≈ 0.466 µM) | 50 | 147 | 4.67 | 205.5 | 0.5 (≈ 0.233 µM) | > 24 | 4 (≈ 1.86 µM) | 2 (≈ 0.932 µM) |
| C=C1NC(=O)[C@H](Cc2c[nH]c3ccccc23)NC(=O)[C@H](NC(=O)[C@H](CCCCN)NC(=O)[C@@H](N)CC(C)C)CSC[C@@H](C(=O)N[C@H]2C(=O)N3CCC[C@H]3C(=O)NCC(=O)N[C@H](C(=O)N[C@@H](C)C(=O)N[C@@H](CC(N)=O)C(=O)NC(=CC)C(=O)NCC(=O)N[C@@H]3CSC[C@@H]4NC(=O)[C@H](Cc5ccc(O)cc5)NC(=O)[C@@H](CS/C=C\NC4=O)NC(=O)[C@H](CC(N)=O)NC(=O)[C@H](Cc4ccccc4)NC3=O)CS[C@H]2C)NC(=O)[C@H](CC(C)C)NC1=O [F1L R13N] | 16 (≈ 7.31 µM) | 16 (≈ 7.31 µM) | 16 (≈ 7.31 µM) | 8 (≈ 3.66 µM) | 8 | > 12 | > 12 | 0.25 (≈ 0.114 µM) | 0 | 5477.8 | 7.36 | 2189.1 | 0.5 (≈ 0.228 µM) | > 24 | 4 (≈ 1.83 µM) | 0.25 (≈ 0.114 µM) |
